# Source: BindingDB's records for doi:10.1016/j.bmc.2005.11.005 (Wyeth Research, 2006)
# Molecular target: T1, Tyrosine-protein phosphatase non-receptor type 2 (Homo sapiens, UniProt P17706)
# T1 sequence (P17706 whole entry): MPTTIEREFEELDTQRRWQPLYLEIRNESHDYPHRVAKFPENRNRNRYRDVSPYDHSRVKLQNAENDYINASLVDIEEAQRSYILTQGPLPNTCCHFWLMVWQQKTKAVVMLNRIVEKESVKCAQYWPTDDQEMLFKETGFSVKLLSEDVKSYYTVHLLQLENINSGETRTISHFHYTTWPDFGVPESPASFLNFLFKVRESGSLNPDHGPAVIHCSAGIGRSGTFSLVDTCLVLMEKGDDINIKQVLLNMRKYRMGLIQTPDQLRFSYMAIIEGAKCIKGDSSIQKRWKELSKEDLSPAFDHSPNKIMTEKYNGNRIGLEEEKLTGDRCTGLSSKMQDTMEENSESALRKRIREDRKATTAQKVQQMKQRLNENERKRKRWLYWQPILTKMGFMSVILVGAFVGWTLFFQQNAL
# Assay: Enzymatic Assay
# Settings: 25 °C
# Method: (§1) The enzymatic assay was carried out at room temperature in 96-well plates. […] All the assays were carried out in duplicate or triplicate and the average results are presented. Ki is derived from IC50 based on competitive inhibition Ki = IC50 x Km/ (Km + [substrate]).
row,Compound,Ki [µM]
1,"O=C(O)COc1c(C(=O)O)sc2c1sc1ccccc12 [5-(carboxymethoxy)-3,7-dithiatricyclo[6.4.0.0^{2,6}]dodeca-1(8),2(6),4,9,11-pentaene-4-carboxylic acid]",4.1
2,"O=C(O)COc1c(C(=O)O)sc2c1sc1cc(NC3CCN(S(=O)(=O)Cc4ccccc4)CC3)ccc12 [5-(carboxymethoxy)-10-{[1-(phenylmethane)sulfonylpiperidin-4-yl]amino}-3,7-dithiatricyclo[6.4.0.0^{2,6}]dodeca-1(8),2(6),4,9,11-pentaene-4-carboxylic acid]",0.38

# Molecular target: T2, Tyrosine-protein phosphatase non-receptor type 1 [1-298] (Homo sapiens, UniProt P18031)
# T2 construct: 1-298
# T2 sequence (P18031 whole entry): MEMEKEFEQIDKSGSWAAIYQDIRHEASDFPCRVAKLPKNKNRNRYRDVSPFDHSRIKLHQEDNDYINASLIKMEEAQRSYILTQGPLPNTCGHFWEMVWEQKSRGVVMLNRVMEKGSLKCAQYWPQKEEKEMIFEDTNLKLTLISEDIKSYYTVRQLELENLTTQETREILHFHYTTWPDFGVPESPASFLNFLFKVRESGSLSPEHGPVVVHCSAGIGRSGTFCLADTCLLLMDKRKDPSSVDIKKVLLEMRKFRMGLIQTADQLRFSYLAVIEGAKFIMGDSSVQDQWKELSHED
# Assay: Enzymatic Assay
# Settings: 25 °C
# Method: as §1
row,Compound,Ki [µM]
1,O=C(O)COc1c(C(=O)O)sc2c(Cl)cccc12 [3-(carboxymethoxy)-7-chloro-1-benzothiophene-2-carboxylic acid],119
2,Cc1cccc2c(OCC(=O)O)c(C(=O)O)sc12 [3-(carboxymethoxy)-7-methyl-1-benzothiophene-2-carboxylic acid],37
3,"O=C(O)COc1c(C(=O)O)sc2c1sc1ccccc12 [5-(carboxymethoxy)-3,7-dithiatricyclo[6.4.0.0^{2,6}]dodeca-1(8),2(6),4,9,11-pentaene-4-carboxylic acid]",9.2
4,"O=C(O)COc1c(C(=O)O)sc2c1cnc1ccccc12 [5-(carboxymethoxy)-3-thia-8-azatricyclo[7.4.0.0^{2,6}]trideca-1(9),2(6),4,7,10,12-hexaene-4-carboxylic acid]",> 500
5,"O=C(O)COc1c(C(=O)O)sc2c1ccc1ccccc12 [5-(carboxymethoxy)-3-thiatricyclo[7.4.0.0^{2,6}]trideca-1(9),2(6),4,7,10,12-hexaene-4-carboxylic acid]",11
6,"O=C(O)COc1c(C(=O)O)sc2c1sc1c(NC3CCCCC3)cccc12 [5-(carboxymethoxy)-9-(cyclohexylamino)-3,7-dithiatricyclo[6.4.0.0^{2,6}]dodeca-1(8),2(6),4,9,11-pentaene-4-carboxylic acid]",1.7
7,"O=C(O)COc1c(C(=O)O)sc2c1sc1c(NCC3CCCCC3)cccc12 [5-(carboxymethoxy)-9-[(cyclohexylmethyl)amino]-3,7-dithiatricyclo[6.4.0.0^{2,6}]dodeca-1(8),2(6),4,9,11-pentaene-4-carboxylic acid]",0.92
8,"O=C(O)COc1c(C(=O)O)sc2c1sc1c(Cl)cccc12 [5-(carboxymethoxy)-9-chloro-3,7-dithiatricyclo[6.4.0.0^{2,6}]dodeca-1(8),2(6),4,9,11-pentaene-4-carboxylic acid]",10
9,"O=C(O)COc1c(C(=O)O)sc2c1sc1cc(NC3CCCCC3)ccc12 [5-(carboxymethoxy)-10-(cyclohexylamino)-3,7-dithiatricyclo[6.4.0.0^{2,6}]dodeca-1(8),2(6),4,9,11-pentaene-4-carboxylic acid]",0.74
10,"O=C(O)COc1c(C(=O)O)sc2c1sc1cc(NC3CCOCC3)ccc12 [5-(carboxymethoxy)-10-(oxan-4-ylamino)-3,7-dithiatricyclo[6.4.0.0^{2,6}]dodeca-1(8),2(6),4,9,11-pentaene-4-carboxylic acid]",2.4
11,"O=C(O)COc1c(C(=O)O)sc2c1sc1cc(NCC3CCCCC3)ccc12 [5-(carboxymethoxy)-10-[(cyclohexylmethyl)amino]-3,7-dithiatricyclo[6.4.0.0^{2,6}]dodeca-1(8),2(6),4,9,11-pentaene-4-carboxylic acid]",0.68
12,"O=C(O)COc1c(C(=O)O)sc2c1sc1cc(Cl)ccc12 [5-(carboxymethoxy)-10-chloro-3,7-dithiatricyclo[6.4.0.0^{2,6}]dodeca-1(8),2(6),4,9,11-pentaene-4-carboxylic acid]",3.5
13,"CCS(=O)(=O)N1CCC(Nc2ccc3c(c2)sc2c(OCC(=O)O)c(C(=O)O)sc23)CC1 [5-(carboxymethoxy)-10-{[1-(ethanesulfonyl)piperidin-4-yl]amino}-3,7-dithiatricyclo[6.4.0.0^{2,6}]dodeca-1(8),2(6),4,9,11-pentaene-4-carboxylic acid]",1.6

# Same assay, conditions: pH 7; 22 °C
row,Compound,Ki [µM]
1,CC(Oc1c(C(=O)O)sc2cc(Cl)ccc12)C(=O)O (centres undefined) [3-(1-carboxyethoxy)-6-chloro-1-benzothiophene-2-carboxylic acid],> 2500
2,O=C(O)COc1c(C(=O)O)sc2ccccc12 [3-(carboxymethoxy)-1-benzothiophene-2-carboxylic acid],160
3,O=C(O)COc1c(C(=O)O)sc2cc(-c3ccc(O)cc3)ccc12 [3-(carboxymethoxy)-6-(4-hydroxyphenyl)-1-benzothiophene-2-carboxylic acid],26
4,O=C(O)COc1c(C(=O)O)sc2cc(-c3cccs3)ccc12 [3-(carboxymethoxy)-6-(thiophen-2-yl)-1-benzothiophene-2-carboxylic acid],30
5,O=C(O)COc1c(C(=O)O)sc2cc(C(=O)Nc3ccn(-c4ccccc4)n3)ccc12 [3-(carboxymethoxy)-6-[(1-phenyl-1H-pyrazol-3-yl)carbamoyl]-1-benzothiophene-2-carboxylic acid],20
6,O=C(O)COc1c(C(=O)O)sc2cc(Cl)ccc12 [3-(carboxymethoxy)-6-chloro-1-benzothiophene-2-carboxylic acid],61
7,"Cc1cc2sc(C(=O)O)c(OCC(=O)O)c2cn1 [3-(carboxymethoxy)-6-methylthieno[3,2-c]pyridine-2-carboxylic acid]",> 2500
8,O=C(O)COc1c(C(=O)O)sc2cc(-c3ccccc3)ccc12 [3-(carboxymethoxy)-6-phenyl-1-benzothiophene-2-carboxylic acid],128
9,"O=C(O)COc1c(C(=O)O)oc2ncccc12 [3-(carboxymethoxy)furo[2,3-b]pyridine-2-carboxylic acid]",> 2500
10,O=C(O)COc1cc2ccccc2cc1C(=O)O [3-(carboxymethoxy)naphthalene-2-carboxylic acid],860
11,"O=C(O)COc1c(C(=O)O)sc2cccnc12 [3-(carboxymethoxy)thieno[3,2-b]pyridine-2-carboxylic acid]",77
12,"O=C(O)COc1c(C(=O)O)sc2ccsc12 [3-(carboxymethoxy)thieno[3,2-b]thiophene-2-carboxylic acid]",280
13,O=C(O)c1sc2cc(Cl)ccc2c1OC(F)C(=O)O (centres undefined) [3-[carboxy(fluoro)methoxy]-6-chloro-1-benzothiophene-2-carboxylic acid],52
14,O=C(O)COc1c(C(=O)O)sc2cc(Br)ccc12 [6-bromo-3-(carboxymethoxy)-1-benzothiophene-2-carboxylic acid],42
